Measurements reported in patent US20100056507A1, “PHENYL DERIVATIVES AND THEIR USE AS A MEDICAMENT” (IPSEN PHARMA S.A.S., priority 2006, published 2010).
Counter-ions that a name gives are not always drawn. Like-named read-outs stand apart in the source and are kept apart here.

Target: T1, human CB2 receptors (Homo sapiens, UniProt P34972)
T1 construct: expressed in transfected cells; membranes used
Assay: Affinity for the human CB2 cannabinoid receptors: inhibition of [3H]-CP55940 binding to transfected CHO-K1 cell membranes
Settings: [3H]-CP55940 1 nM, CHO-K1 membranes expressing human CB2, Cheng-Prusoff correction
Experimental: The affinity of the compounds of the invention for the human CB2 receptors is determined by measuring the inhibition of the binding of [^3H]-CP55940 to transfected CHO-K1 cell membrane preparations.
The cells are collected with 0.5 mM of EDTA and centrifuged at 500 g for 5 minutes at 4° C. The pellet is re-suspended in phosphate buffered saline medium (PBS) and centrifuged at 500 g for 5 minutes at 4° C. The pellet is re-suspended in a Tris 50 mM buffer medium at pH 7.4 and centrifuged at 500 g for 5 minutes at 4° C. The cells are lysed by sonication and centrifuged at 39,000 g for 10 minutes at 4° C. The pellet is re-suspended in the Tris 50 mM buffer medium at pH 7.4 and centrifuged at 50,000 g for 10 minutes at 4° C. The membranes obtained in this last pellet are stored at −80° C.
Measurement of the competitive inhibition of the binding of the [^3H]-CP55940 to the CB2 receptors is carried out in duplicate using 96-well polypropylene plates. The cell membranes (10 μg of proteins/well) are incubated with the [^3H]-CP55940 (1 nM) for 60 minutes at 25° C. in a Tris-HCl 50 mM buffer medium, pH 7.4, comprising 0.1% bovine serum albumin (BSA), 5 mM of MgCl2, and 50 μg/ml of bacitracin.
The filters are washed with Tris-HCl 50 mM buffer, pH 7.4 at 0-4° C. and the radioactivity present is determined using a counter (Packard Top Count).
The specific binding is obtained by subtracting the non-specific binding (determined in the presence of 0.1 μM of WIN55212-2 from the total binding). The data are analyzed by computer-assisted non-linear regression (MDL). For each test, a Cheng-Prusoff correction is made in order to convert the IC50 to the inhibition constant, Ki.
where [L] is the concentration of the radioligand used in the test and Kd is the radioligand equilibrium disassociation constant.

T1 sequence (P34972 whole entry): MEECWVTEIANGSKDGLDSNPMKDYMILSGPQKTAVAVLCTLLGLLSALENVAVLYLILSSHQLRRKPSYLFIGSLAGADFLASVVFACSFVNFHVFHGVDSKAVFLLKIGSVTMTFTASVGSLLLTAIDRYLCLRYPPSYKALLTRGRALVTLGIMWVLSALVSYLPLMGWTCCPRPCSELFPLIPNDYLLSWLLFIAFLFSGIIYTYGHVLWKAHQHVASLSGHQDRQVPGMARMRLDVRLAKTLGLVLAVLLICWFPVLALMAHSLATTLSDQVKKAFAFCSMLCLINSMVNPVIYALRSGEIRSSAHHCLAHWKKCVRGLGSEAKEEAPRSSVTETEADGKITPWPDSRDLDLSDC

| Ki (read-out: Ki < 5 μM) [µM] | Ki (read-out: Ki < 0.5 μM) [µM] | SMILES |
| --- | --- | --- |
| < 5 |  | O=C(OCCc1ccc(NC(=O)C2CCC2)cc1)c1ccc2c(c1)C(=O)CC2 [Example 38] |
| < 5 | < 0.5 | CCCNC(=S)Nc1ccc(CCOC(=O)c2ccc3c(c2)C(C)(C)CCC3(C)C)cc1 [Example 77] |
| < 5 | < 0.5 | CC(=O)Nc1ccc(CCOC(=O)c2ccc3c(c2)C(C)(C)CCC3(C)C)cc1 [Example 54] |
| < 5 | < 0.5 | CC1(C)CCc2cc(C(=O)OCCc3ccc(NC(=O)C4CCC4)cc3)ccc2O1 [Example 42] |
| < 5 | < 0.5 | CCCCNC(=O)Nc1ccc(CCOC(=O)c2ccc3c(c2)C(C)(C)CCC3(C)C)cc1 [Example 83] |
| < 5 | < 0.5 | CC1(C)CCC(C)(C)c2cc(C(=O)OCCc3ccc(NC(=O)CC4CC4)cc3)ccc21 [Example 91] |
| < 5 | < 0.5 | CC(C)NC(=O)Nc1ccc(CCOC(=O)c2ccc3c(c2)C(C)(C)CCC3(C)C)cc1 [Example 73] |
| < 5 | < 0.5 | CCCNC(=O)Nc1ccc(CCc2nnc(-c3cc(C(C)(C)C)cc(C(C)(C)C)c3)s2)cc1 [Example 48, N-(4-{2-[5-(3,5-di-tert-butylphenyl)-1,3,4-thiadiazol-2-yl]ethyl}phenyl)-N′-propylurea] |
| < 5 | < 0.5 | CC1(C)CCC(C)(C)c2cc(C(=O)OCCc3ccc(NC(=O)C4CCC4)cc3)ccc21 [Example 1, 2-{4-[(cyclobutylcarbonyl)amino]phenyl}ethyl 5,5,8,8-tetramethyl-5,6,7,8-tetrahydronaphthalene-2-carboxylate] |
| < 5 | < 0.5 | CC1CC1C(=O)Nc1ccc(CCOC(=O)c2ccc3c(c2)C(C)(C)CCC3(C)C)cc1 (stereo not shown) [Example 88] |
| < 5 | < 0.5 | O=C(OCCc1ccc(NC(=O)C2CCC2)cc1)c1ccc2c(c1)CCC2 [Example 11] |
| < 5 | < 0.5 | CC(C)(C)c1cc(-c2nc(Cc3ccc(NC(=O)C4CCC4)cc3)no2)cc(C(C)(C)C)c1 [Example 19] |
| < 5 | < 0.5 | CC1(C)CCC(C)(C)c2cc(C(=O)OCCc3ccc(NC(=O)Cc4ccccc4)cc3)ccc21 [Example 67] |
| < 5 | < 0.5 | CCCNC(=O)Nc1ccc(CCOC(=O)c2ccc3c(c2)C(C)(C)CCC3(C)C)cc1 [Example 29, 2-(4-{[(propylamino)carbonyl]amino}phenyl)ethyl 5,5,8,8-tetramethyl-5,6,7,8-tetrahydronaphthalene-2-carboxylate] |
| < 5 | < 0.5 | Cc1cc2c(cc1C(=O)OCCc1ccc(NC(=O)C3CCC3)cc1)C(C)(C)CCC2 [Example 35] |
| < 5 |  | CC(C)(C)c1cc(-c2nnc(NCc3ccc(NC(=O)C4CCC4)cc3)o2)cc(C(C)(C)C)c1 [Example 23] |
| < 5 | < 0.5 | CC1(C)CCC(C)(C)c2cc(C(=O)OCCc3ccc(NC(=S)NCc4ccco4)cc3)ccc21 [Example 80] |
| < 5 | < 0.5 | CCNC(=S)Nc1ccc(CCOC(=O)c2ccc3c(c2)C(C)(C)CCC3(C)C)cc1 [Example 76, 2-(4-{[(ethylamino)carbonothioyl]amino}phenyl)ethyl 5,5,8,8-tetramethyl-5,6,7,8-tetrahydronaphthalene-2-carboxylate] |
| < 5 | < 0.5 | COCCNC(=S)Nc1ccc(CCOC(=O)c2ccc3c(c2)C(C)(C)CCC3(C)C)cc1 [Example 79] |

| Ki (read-out: Ki < 5 μM) [µM] | Ki (read-out: Ki < 0.5 μM) [µM] | SMILES |
| --- | --- | --- |
| < 5 | < 0.5 | CCCC(=O)Nc1ccc(CCOC(=O)c2ccc3c(c2)C(C)(C)CCC3(C)C)cc1 [Example 94] |
| < 5 | < 0.5 | Cc1cc2c(cc1C(=O)OCCc1ccc(NC(=O)C3CCC3)cc1)C(C)(C)CCC2(C)C [Example 49] |
| < 5 | < 0.5 | CCC(C)NC(=O)Nc1ccc(CCOC(=O)c2ccc3c(c2)C(C)(C)CCC3(C)C)cc1 (stereo not shown) [Example 82] |
| < 5 | < 0.5 | CC1(C)CCC(C)(C)c2cc(C(=O)OCc3ccc(C(=O)NC4CCC4)cc3)ccc21 [Example 3] |
| < 5 |  | CC1(C)CCC(C)(C)c2cc(-c3nnc(CCc4ccc(/N=C(/N)c5cccs5)cc4)o3)ccc21 [Example 6, N′-(4-{2-[5-(5,5,8,8-tetramethyl-5,6,7,8-tetrahydronaphthalen-2-yl)-1,3,4-oxadiazol-2-yl]ethyl}phenyl)thiophene-2-carboximidamide hydrochloride] |
| < 5 | < 0.5 | CC1(C)CCC(C)(C)c2cc(C(=O)OCCc3ccc(NS(=O)(=O)C4CC4)cc3)ccc21 [Example 72] |
| < 5 |  | O=C(OCCc1ccc(NC(=O)C2CCC2)cc1)c1ccc2c(c1)OCO2 [Example 34] |
| < 5 | < 0.5 | CC1(C)CCC(C)(C)c2cc(C(=O)OCCc3ccc(NC(=O)C4CCOC4)cc3)ccc21 (stereo not shown) [Example 92] |
| < 5 | < 0.5 | CC1(C)CCC(C)(C)c2cc(C(=O)OCCc3ccc(NC(=O)NC4CCC4)cc3)ccc21 [Example 97] |
| < 5 |  | O=C(OCCc1ccc(NC(=O)C2CCC2)cc1)c1ccc2c(c1)C(=O)CCC2 [Example 7] |
| < 5 | < 0.5 | CCCCC(=O)Nc1ccc(CCOC(=O)c2ccc3c(c2)C(C)(C)CCC3(C)C)cc1 [Example 60] |
| < 5 | < 0.5 | CCCNC(=O)Nc1ccc(CCc2nnc(-c3cc(C(C)(C)C)cc(C(C)(C)C)c3)o2)cc1 [Example 18] |
| < 5 | < 0.5 | COCC(=O)Nc1ccc(CCOC(=O)c2ccc3c(c2)C(C)(C)CCC3(C)C)cc1 [Example 85] |
| < 5 | < 0.5 | CC1(C)CCC(C)(C)c2cc(C(=O)OCCc3ccc(NC(=O)Cc4cccs4)cc3)ccc21 [Example 68] |
| < 5 | < 0.5 | CC(C)(C)CC(=O)Nc1ccc(CCOC(=O)c2ccc3c(c2)C(C)(C)CCC3(C)C)cc1 [Example 59] |
| < 5 | < 0.5 | CC(C)(C)c1cc(-c2nnc(CCc3ccc(NC(=O)C4CCC4)cc3)o2)cc(C(C)(C)C)c1 [Example 16] |
| < 5 | < 0.5 | C=CCCC(=O)Nc1ccc(CCOC(=O)c2ccc3c(c2)C(C)(C)CCC3(C)C)cc1 [Example 62] |
| < 5 | < 0.5 | C=CCNC(=O)Nc1ccc(CCOC(=O)c2ccc3c(c2)C(C)(C)CCC3(C)C)cc1 [Example 30] |

| SMILES | Ki (read-out: Ki < 5 μM) [µM] | Ki (read-out: Ki < 0.5 μM) [µM] |
| --- | --- | --- |
| CC1(C)CCC(C)(C)c2cc(-c3nnc(CCc4ccc(NC(=O)C5CCC5)cc4)s3)ccc21 [Example 51] | < 5 | < 0.5 |
| CCCNC(=O)Nc1ccc(CCc2nnc(-c3ccc4c(c3)C(C)(C)CCC4(C)C)s2)cc1 [Example 53] | < 5 | < 0.5 |
